The values below come from patent US20220015363A1, “SMALL MOLECULE PATHOGEN DISPERSAL AGENT” (The Trustees of Princeton University, priority 2020, published 2022).

One assay concerns P. aeruginosa. In words: orientation of surface attachment (vertical vs horizontal) of cells. The format is cell-based. The settings on record: 10 mM MHQ; ntotal=1331; PBS control 76%. How it is done:
Upon treatment with phosphate buffered saline (PBS), 76% (ntotal=1347) of the cells attached to the surface vertically. In contrast, upon treatment with, e.g., 10 mM MHQ, only 5% (ntotal=1331) of the cells attached to the surface vertically. A similar behavior is found between MHQ-treated WT cells and mutants lacking Type IV pilin subunits (PilA), as only 7% (ntotal=1995) of ΔpilA cells were attached vertically even in PBS treatment.

Another assay deals with T4P activity. In words: T4P dynamics imaging by cysteine-labeling of PilA. The format is cell-based, P. aeruginosa. The settings on record: 2 mM MHQ for 5 min; n=493; PBS control 77%. As for the experimental part:
To directly assay the effect of a dispersing compound on T4P activity, the recently developed cysteine-labeling approach can be used to fluorescently label T4P and image their dynamics. This approach uses a cysteine point mutation in an unstructured loop of the PilA pilin subunit to label the pili through maleimide-based click chemistry. In one experiment, the pili of untreated cells were labeled and then imaged T4P dynamics after a brief (5 min) exposure to MHQ or PBS control. Following a 5 min mock treatment with PBS, T4P were seen extending and retracting from 77% of the cells (n=473). […] Since the T4P was labeled before MHQ treatment and the treatment was brief, this effect cannot be attributed to effects of MHQ on TFP expression or labeling. Similar results can be seen with other disclosed dispersing compounds.

Assay [1] has as its system type IV pili (T4P) twitching motility. Nature of the assay: twitching assay (spread under agar, crystal violet staining). The format is cell-based, P. aeruginosa. The text has this:
Since T4P is required for twitching motility, the dispersing compound's effect on a pathogen can be seen in a twitching assay. In this assay, cells are placed underneath agar and allowed to spread from their starting spot along the bottom surface of a Petri dish. The extent of this spread is visualized with crystal violet staining and quantified. In the presence of agar made with LB, WT cells traveled 11±0.7 mm (mean±SD) from the starting spot. […] The effect of MHQ on twitching depended on T4P, as ΔpilA cells that lack T4P traveled similar distances away from the starting spot in the absence of MHQ (1.9±0.1 mm) or in the presence of MHQ (2.3±0.3 mm).

For `Cc1cc(O)c2ccccc2n1` [MHQ, 2-methyl-4-hydroxyquinoline], the “cells attached to the surface vertically” value with P. aeruginosa came to 5%. The “cells exhibiting any T4P extension or retraction events” value with T4P activity came out at 4%. For the same molecule, the “distance traveled from the starting spot” value in assay [1] (WT cells, agar made with LB and 2 mM MHQ, mean±SD, LB alone 11±0.7 mm) is 7±0.5 mm; in assay [1] (ΔpilA cells that lack T4P, in the presence of MHQ, without MHQ 1.9±0.1 mm), 2.3±0.3 mm.
